Columns and labels:
[1] = tested on: E. Coli strain (ATCC 43888); assay: three-channel, six-chamber microfluidic chemotaxis assay; format: cell-based, Escherichia coli
Protocol: PBS, Tris and LB were autoclaved before use. E Coli strain (ATCC 43888) was obtained from Fisher Scientific (Pittsburgh, Pa.). All cultures were grown in 10 mL of LB incubated at 37° C. for approximately 4 hours until the optical density of sample at wavelength of 600 nm reached 0.8. Optical density at 600 nm was measured for cell culture quantification.
An exemplary device described and depicted herein consists of a center channel that delivers a bacteria sample from a small reservoir to the central interaction region, where the channel is perpendicularly connected to six chambers. […] These channels serve as a source for generating a chemical gradient in the chambers. A nitrocellulose membrane (Millipore type GSTF) with a 0.22 μm pore size serves as a porous medium that separates the side channels from the chambers while allowing chemicals to diffuse through to the chambers. The pore size of 0.22 μm was selected as an exemplary pore size to ensure chemical axial flow through the porous nitrocellulose substrate, while prohibiting the passage of the cells or analyte to be analyzed through the porous substrate. Other pore sizes may be utilized depending on the type of assay and cells or analyte to be analyzed are contemplated herein.
The same volume of buffer saline was taken back through the filter into the syringe; suspending the cells in the buffer saline medium. This process was repeated three times to ensure the complete exchange of growth medium with buffer saline. The bacterial motility was not affected.
The microfluidic device was prepared as follow. The top glass assembly was properly cleaned and reused for many experiments, while the membrane and the bottom glass were renewed for each experiment. Acetone, isopropanol, and DI water were used to effectively clean the top glass and reservoirs. The membrane layer was soaked entirely in buffer solution for 30 min before use to ensure the removal of all air bubbles. The soaked membrane was then aligned with the inlet/outlet ports on the top glass and sandwiched between the top glass and another glass slide using 6 small stainless steel clips that provide constant and consistent pressure over the entire membrane area, as shown in FIG. 3.
After the device assembly, the input reservoirs were filled with buffer and the output reservoirs were vacuumed for a few seconds, the strong resulting flow expels all possible bubbles from the microfluidic system. The channels were inspected under microscope before conducting tests. All the experiments were conducted at least for three times to determine reproducibility. The bacterial chemotaxis experiments were conducted at an ambient temperature of 36° C.
Chemotactic response of cells to a chemical gradient was tested in another set of experiments. […]

E Coli [2] = conditions: agarose gel diffusive medium; cited from earlier work
E Coli [3] = conditions: about 20 mM aspartic acid; cited from earlier work
[4] = capillary assay; cited from earlier work

Compound | ratio of bacteria count in the buffer chambers to the repellent side chambers ([1]; 0.5 mM NiCl2 as repellent, Tris Buffered Saline) | motility of the cells after introducing the repellent ([1]; due to an increase in tumbling frequency) | concentration generating the maximum chemotactic response (E Coli [2]) | chemotactic index (peak response) (E Coli [3]) | chemotaxis index (IC) ([1]; 0.5 mM aspartic acid in PBS buffer as attractant, cells in attractant chambers vs buffer side chambers, about 30 min) | aspartic acid concentration giving a more significant chemotactic response ([1]; different aspartic acid concentrations tried) | peak concentration for chemotaxis [4]
[Cl][Ni][Cl] [NiCl2, nickel chloride] | more than 8 times | reduced to some degree | – | – | – | – | –
N[C@@H](CC(=O)O)C(=O)O [aspartic acid, L-aspartic acid] | – | – | 0.5 mM | 1.74 | 4 | 0.5 mM | about 10 mM
